Test results reported in ChEMBL document CHEMBL1201861, “Genomics of Drug Sensitity in Cancer screening data, Wellcome Trust Sanger Institute”.

Assays:
LU-99A = assay: cells; type: functional, cell-based, Homo sapiens; conditions: lu-99a;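 further: growth inhibition of LU-99A cells, read out with a cell viability assay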
Description: SANGER: Inhibition of human LU-99A cell growth in a cell viability assay.

Ca-Ski = assay: cells; type: functional, cell-based, Homo sapiens; conditions: ca-ski;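 further: cell viability assay measuring inhibition of Ca-Ski cell growth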
Description: SANGER: Inhibition of human Ca-Ski cell growth in a cell viability assay.

SNU-387 = assay: cells; type: functional, cell-based, Homo sapiens; conditions: snu-387
Description: SANGER: Inhibition of human SNU-387 cell growth in a cell viability assay.

BHT-101 = assay: cells; type: functional, cell-based, Homo sapiens; conditions: bht-101
Description: SANGER: Inhibition of human BHT-101 cell growth in a cell viability assay.

MC-CAR = assay: cells; type: functional, cell-based, Homo sapiens; conditions: mc-car;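 further: growth inhibition of the human MC-CAR cell line, read out by a cell viability assay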
Description: SANGER: Inhibition of human MC-CAR cell growth in a cell viability assay.

SW1710 = assay: cells; type: functional, cell-based, Homo sapiens; conditions: sw1710;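 further: growth inhibition of SW1710 cells, determined with a cell viability assay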
Description: SANGER: Inhibition of human SW1710 cell growth in a cell viability assay.

DU-145 = assay: cells; type: functional, cell-based, Homo sapiens; conditions: du-145
Description: SANGER: Inhibition of human DU-145 cell growth in a cell viability assay.

NCI-H2009 = assay: cells; type: functional, cell-based, Homo sapiens; conditions: nci-h2009;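 further: cell viability assay measuring inhibition of NCI-H2009 cell growth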
Description: SANGER: Inhibition of human NCI-H2009 cell growth in a cell viability assay.

HTC-C3 = assay: cells; type: functional, cell-based, Homo sapiens; conditions: htc-c3;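 further: inhibition of cell growth, read out with a cell viability assay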
Description: SANGER: Inhibition of human HTC-C3 cell growth in a cell viability assay.

H4 = assay: cells; type: functional, cell-based, Homo sapiens; conditions: h4
Description: SANGER: Inhibition of human H4 cell growth in a cell viability assay.

LC-1F = assay: cells; type: functional, cell-based, Homo sapiens; conditions: lc-1f;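 further: growth inhibition of human LC-1F cells, read out with a cell viability assay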
Description: SANGER: Inhibition of human LC-1F cell growth in a cell viability assay.

MDA-MB-453 = assay: cells; type: functional, cell-based, Homo sapiens; conditions: mda-mb-453
Description: SANGER: Inhibition of human MDA-MB-453 cell growth in a cell viability assay.

HT-1080 = assay: cells; type: functional, cell-based, Homo sapiens; conditions: ht-1080
Description: SANGER: Inhibition of human HT-1080 cell growth in a cell viability assay.

NCI-H524 = assay: cells; type: functional, cell-based, Homo sapiens; conditions: nci-h524;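 further: growth inhibition of human NCI-H524 cells, read out through a cell viability assay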
Description: SANGER: Inhibition of human NCI-H524 cell growth in a cell viability assay.

SW1417 = assay: cells; type: functional, cell-based, Homo sapiens; conditions: sw1417;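 further: growth inhibition of human SW1417 cells, read out with a cell viability assay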
Description: SANGER: Inhibition of human SW1417 cell growth in a cell viability assay.

KYSE-180 = assay: cells; type: functional, cell-based, Homo sapiens; conditions: kyse-180;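 further: growth inhibition of KYSE-180 cells, read out with a cell viability assay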
Description: SANGER: Inhibition of human KYSE-180 cell growth in a cell viability assay.

HT1197 = assay: cells; type: functional, cell-based, Homo sapiens, HT-1197; conditions: ht-1197
Description: SANGER: Inhibition of human HT-1197 cell growth in a cell viability assay.

BL-70 = assay: SANGER: Inhibition of human BL-70 cell growth in a cell viability assay.; type: functional, cell-based; conditions: bl-70
CAL-62 = assay: cells; type: functional, cell-based, Homo sapiens; conditions: cal-62;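 further: growth inhibition of CAL-62 cells, read out with a cell viability assay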
Description: SANGER: Inhibition of human CAL-62 cell growth in a cell viability assay.

DMS-153 = assay: cells; type: functional, cell-based, Homo sapiens; conditions: dms-153
Description: SANGER: Inhibition of human DMS-153 cell growth in a cell viability assay.

SUP-T1 = assay: cells; type: functional, cell-based, Homo sapiens; conditions: sup-t1;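 further: growth inhibition of human SUP-T1 cells, read out as cell viability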
Description: SANGER: Inhibition of human SUP-T1 cell growth in a cell viability assay.

DoTc2-4510 = assay: cells; type: functional, cell-based, Homo sapiens; conditions: dotc2-4510
FTC-133 = assay: cells; type: functional, cell-based, Homo sapiens; conditions: ftc-133
NCI-H810 = assay: cells; type: functional, cell-based, Homo sapiens; conditions: nci-h810;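 further: IC50 reflects inhibition of cancer cell line growth, read out with a cell viability assay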
Description: SANGER: Inhibition of human NCI-H810 cell growth in a cell viability assay.

NY = assay: cells; type: functional, cell-based, Homo sapiens; conditions: ny
Description: SANGER: Inhibition of human NY cell growth in a cell viability assay.

MRK-nu-1 = assay: cells; type: functional, cell-based, Homo sapiens; conditions: mrk-nu-1;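 further: cell viability assay measuring growth suppression of human MRK-nu-1 cells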
Description: SANGER: Inhibition of human MRK-nu-1 cell growth in a cell viability assay.

WM-115 = assay: cells; type: functional, cell-based, Homo sapiens; conditions: wm-115
Description: SANGER: Inhibition of human WM-115 cell growth in a cell viability assay.

G-401 = assay: cells; type: functional, cell-based, Homo sapiens; conditions: g-401
Description: SANGER: Inhibition of human G-401 cell growth in a cell viability assay.

MDA-MB-175-VII = assay: cells; type: functional, cell-based, Homo sapiens; conditions: mda-mb-175-vii
VMRC-RCZ = assay: cells; type: functional, cell-based, Homo sapiens; conditions: vmrc-rcz
Description: SANGER: Inhibition of human VMRC-RCZ cell growth in a cell viability assay.

L-540 = assay: cells; type: functional, cell-based, Homo sapiens; conditions: l-540;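 further: growth inhibition of the human L-540 cell line, read out with a viability assay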
Description: SANGER: Inhibition of human L-540 cell growth in a cell viability assay.

C3A = assay: cells; type: functional, cell-based, Homo sapiens; conditions: c3a;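 further: growth inhibition of C3A human cells, quantified with a cell viability readout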
Description: SANGER: Inhibition of human C3A cell growth in a cell viability assay.

SW1088 = assay: cells; type: functional, cell-based, Homo sapiens; conditions: sw1088;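 further: growth inhibition of human SW1088 cells, read out by a cell viability assay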
Description: SANGER: Inhibition of human SW1088 cell growth in a cell viability assay.

CaR-1 = assay: cells; type: functional, cell-based, Homo sapiens; conditions: car-1;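 further: growth inhibition of human CaR-1 cancer cells, read out with a cell viability assay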
Description: SANGER: Inhibition of human CaR-1 cell growth in a cell viability assay.

NCI-H748 = assay: cells; type: functional, cell-based, Homo sapiens; conditions: nci-h748;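 further: growth inhibition of NCI-H748 cells, measured by a cell viability assay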
Description: SANGER: Inhibition of human NCI-H748 cell growth in a cell viability assay.

RCM-1 = assay: cells; type: functional, cell-based, Homo sapiens; conditions: rcm-1;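 further: growth inhibition of the RCM-1 line, determined with a cell viability readout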
Description: SANGER: Inhibition of human RCM-1 cell growth in a cell viability assay.

A-375 = assay: cells; type: functional, cell-based, Homo sapiens; conditions: a-375;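 further: growth inhibition of A375 cells, read out with a cell viability assay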
Description: SANGER: Inhibition of human A375 cell growth in a cell viability assay.

SK-MEL-24 = assay: cells; type: functional, cell-based, Homo sapiens; conditions: sk-mel-24;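 further: growth inhibition read out by a cell viability assay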
Description: SANGER: Inhibition of human SK-MEL-24 cell growth in a cell viability assay.

HO-1-N-1 = assay: cells; type: functional, cell-based, Homo sapiens; conditions: ho-1-n-1;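 further: growth inhibition of human HO-1-N-1 cells, read out with a cell viability assay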
Description: SANGER: Inhibition of human HO-1-N-1 cell growth in a cell viability assay.

LP-1 = assay: cells; type: functional, cell-based, Homo sapiens; conditions: lp-1;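 further: growth inhibition of human LP-1 cells, with the read-out taken from a cell viability assay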
Description: SANGER: Inhibition of human LP-1 cell growth in a cell viability assay.

HT55 = assay: cells; type: functional, cell-based, Homo sapiens; conditions: ht55;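 further: cell viability readout measuring growth inhibition of human HT55 cells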
Description: SANGER: Inhibition of human HT55 cell growth in a cell viability assay.

SCLC-21H = assay: cells; type: functional, cell-based, Homo sapiens; conditions: sclc-21h;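 further: growth inhibition of cultured human SCLC-21H cells, read out with a cell viability assay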
Description: SANGER: Inhibition of human SCLC-21H cell growth in a cell viability assay.

SNU-16 = assay: cells; type: functional, cell-based, Homo sapiens; conditions: snu-16;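 further: growth inhibition of human SNU-16 cells, determined with a cell viability readout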
Description: SANGER: Inhibition of human NCI-SNU-16 cell growth in a cell viability assay.

LU-165 = assay: cells; type: functional, cell-based, Homo sapiens; conditions: lu-165
Description: SANGER: Inhibition of human LU-165 cell growth in a cell viability assay.

CAMA-1 = assay: cells; type: functional, cell-based, Homo sapiens; conditions: cama-1;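 further: growth inhibition of CAMA-1 cells, read out with a cell viability assay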
Description: SANGER: Inhibition of human CAMA-1 cell growth in a cell viability assay.

SW48 = assay: cells; type: functional, cell-based, Homo sapiens; conditions: sw48;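 further: growth inhibition of SW48 cells, read out with a cell viability assay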
Description: SANGER: Inhibition of human SW48 cell growth in a cell viability assay.

Capan-2 = assay: cells; type: functional, cell-based, Homo sapiens; conditions: capan-2;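 further: Capan-2 cell growth inhibition, read out with a viability assay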
Description: SANGER: Inhibition of human Capan-2 cell growth in a cell viability assay.

THP-1 = assay: cells; type: functional, cell-based, Homo sapiens; conditions: thp-1;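 further: growth inhibition of THP-1 cells, read out via a cell viability assay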
Description: SANGER: Inhibition of human THP-1 cell growth in a cell viability assay.

CHP-126 = assay: cells; type: functional, cell-based, Homo sapiens; conditions: chp-126
Description: SANGER: Inhibition of human CHP-126 cell growth in a cell viability assay.

BLEOMYCIN
IC50 (LU-99A): 0.00422 µM | IC50 (Ca-Ski): 0.798 µM | IC50 (SNU-387): 0.925 µM | IC50 (BHT-101): 7.34 µM | IC50 (MC-CAR): 1.4 µM | IC50 (SW1710): 0.295 µM | IC50 (DU-145): 0.823 µM | IC50 (NCI-H2009): 2.56 µM | IC50 (HTC-C3): 77.8 µM | IC50 (H4): 0.321 µM | IC50 (LC-1F): 49.4 µM | IC50 (MDA-MB-453): 15.4 µM | IC50 (HT-1080): 0.234 µM | IC50 (NCI-H524): 190 µM | IC50 (SW1417): 249 µM | IC50 (KYSE-180): 3.8 µM | IC50 (HT1197): 2.74 µM | IC50 (BL-70): 1650 µM | IC50 (CAL-62): 3.34 µM | IC50 (DMS-153): 165 µM | IC50 (SUP-T1): 0.000251 µM | IC50 (DoTc2-4510): 0.378 µM | IC50 (FTC-133): 1.29 µM | IC50 (NCI-H810): 55.1 µM | IC50 (NY): 5.91 µM | IC50 (MRK-nu-1): 1.45 µM | IC50 (WM-115): 7.09 µM | IC50 (G-401): 3.29 µM | IC50 (MDA-MB-175-VII): 1.51 µM | IC50 (VMRC-RCZ): 2.69 µM | IC50 (L-540): 23.5 µM | IC50 (C3A): 0.296 µM | IC50 (SW1088): 818 µM | IC50 (CaR-1): 4.45 µM | IC50 (NCI-H748): 75.2 µM | IC50 (RCM-1): 1.26 µM | IC50 (A-375): 0.0711 µM | IC50 (SK-MEL-24): 23.3 µM | IC50 (HO-1-N-1): 4.42 µM | IC50 (LP-1): 307 µM | IC50 (HT55): 1040 µM | IC50 (SCLC-21H): 577 µM | IC50 (SNU-16): 16100 µM | IC50 (LU-165): 41.8 µM | IC50 (CAMA-1): 17.5 µM | IC50 (SW48): 0.546 µM | IC50 (Capan-2): 24.2 µM | IC50 (THP-1): 92.5 µM | IC50 (CHP-126): 1.27 µM
